In publication PMC9751290, “Design, synthesis, in vitro, in silico, and SAR studies of flavone analogs towards anti-dengue activity” (Scientific Reports, 2022):
Entries after “also recorded” stand apart in the source; their conditions may differ. Like-named read-outs stand apart in the source and are kept apart here.

Assays:
DENV2 NGC = test: Screening antiviral efficacy: viral inhibition at 10 µM in DENV2-infected LLC/MK2 cells, plaque titration; format: cell-based, DENV2 (New Guinea C strain); conditions: for inhibition at 10 µM: Dengue virus
Procedure: The flavone analogs were preliminary screened for their viral inhibitory activity against DENV2 NGC (accession number NC_001474.2) in a LLC/MK2 (ATCC CCL-7™) cell-based system at the final concentration of 10 μM. […] On the other hand, the acylation of the hydroxy groups on the A-ring yielded mixed results.
LLC/MK2 cells (5 × 10^4) were seeded in 24-well plate and incubate at 37 °C under 5% CO2 overnight. Cells were infected with DENV2 NGC at a multiplicity of infection (M.O.I. of 0.1) and compounds at 10 µM were added and DMSO at 1% was used as control. Cultured plates were incubated for 1 h with gentle rocking every 15 min. Cells were washed with PBS, MEM supplemented with 1% FBS, 100 I.U./mL penicillin, and 100 µg/mL streptomycin, 10 mM HEPES was added in a presence of a compound at 10 µM. Cells were incubated at 37 °C with 5% CO2 for 3 days. Supernatants were collected to determine viral titers by plaque titration assay as previously described. The selected compounds were further analyzed for an effective concentration (EC50).

[1] = Cellular toxicity in LLC/MK2 cells (MTS assay); format: cell-based; conditions: rhesus monkey
Procedure: Cytotoxicity of the compounds was also accessed at the concentration of 10 µM in parallel with the viral inhibition screening. LLC/MK2 cells (1 × 10^4) were seeded in 96-well plate and incubated at 37 °C under 5% CO2 overnight; compounds were added after 24 h, and then incubated for 2 days. DMSO at 1% was used as mock treatment. Cytotoxicity was measured using CellTiter 96® Aqueous One Solution Cell Proliferation Assay (MTS) kit (Promega, Wisconsin-Madison, WI, USA) according to the manufacturer’s instruction and analyzed by EnSight Multimode Plate Reader spectrophotometry at A450nm. (Perkin Elmer, Waltham, MA, USA).

DENV2 [2] = test system: DENV2; set-up: method as in PMID 23140177, PMID 29057920; conditions: data according to literature (footnote f); read-out: EC50 (50% effective concentration against DENV2); cited from earlier work
[3] = test system: DENV2 replication in Vero cells; set-up: method as in PMID 31441148, PMID 23140177; conditions: cited from earlier work
DENV2 [4] = test: Antiviral efficacy (EC50) against DENV2 in LLC/MK2 cells, plaque titration; format: cell-based, DENV2 (New Guinea C strain); conditions: for EC50: Dengue virus, DENV2, LLC/MK2 cells, three independent experiments, read-out: EC50 (50% effective concentration against DENV2); for fold increase in activity compared with 8-bromobaicalein 5f / fold more active than the original baicalein 5a: EC50 against DENV2
Procedure: LLC/MK2 (ATCC® CCL-7), and C6/36 (ATCC® CRL-1660) cell lines were propagated and maintained as previously described[18],[29],[31]. Effective concentration (EC50) of the compounds against the DENV2 were tested using LLC/MK2 cells[18],[29]. Briefly, cells were seeded overnight and infected with each virus at the multiplicity of infection (M.O.I.) of 0.1 for 1 h. The compound was added during and after infection, and cells were incubated for 72 h. Supernatants were collected for plaque titration. EC50 results were means and standard errors of three independent experiments.

[5] = Cellular toxicity in LLC/MK2 cells (MTS assay); format: cell-based; conditions: rhesus monkey; remark: listed apart in the source
dengue and Zika virus = conditions: cited from earlier work
dengue virus = test system: dengue virus; set-up: method as in PMID 28389141; conditions: mice administered with luteolin; cited from earlier work
[6] = 10 μM, DENV2 NGC-infected LLC/MK2 cells, NA = not active, read-out: %Inhibition (%viral inhibition against DENV2)
[7] = DENV2, LLC-MK2, read-out: %Inhibition (%viral inhibition against DENV2)
[8] = 10 μM, read-out: %Viability in LLC/MK2 cell

| SMILES | inhibition at 10 µM (DENV2 NGC; [6]) | viability at 2 days, 10 µM [1] | other results |
| --- | --- | --- | --- |
| CCC(=O)Oc1ccc2oc(-c3ccccc3)cc(=O)c2c1 [1c, 6-Propionoxyflavone] | 73% | 89.18 ± 0.78% |  |
| COc1cc2oc(-c3ccc(Br)cc3)cc(=O)c2c(O)c1OC [5p, 4′-Bromo-5-hydroxy-6,7-dimethoxyflavone] | 64.8% | 96.8 ± 5.28% |  |
| O=c1cc(-c2ccccc2)oc2cc(O)c(O)c(O)c12 [5a, baicalein] |  |  | inhibition at 10 µM (DENV2 NGC; [7]): 75%; viability at 2 days, 10 µM [1, 8]: 92.9 ± 1.44%; EC50 (DENV2 [2]): 23900 nM; IC50 [3]: 23900 nM; selectivity index (SI) [3]: 17.8 |
| COc1cc2oc(-c3ccc(N)cc3)cc(=O)c2c(OC)c1OC [5l, 4′-Amino-5,6,7-trimethoxyflavone] | 62% | 93 ± 2.36% |  |
| O=c1cc(-c2ccc([N+](=O)[O-])cc2)oc2cc(O)c(O)c(O)c12 [5n, 5,6,7-Trihydroxy-4′-nitroflavone] | 100% | 78.5 ± 9.87% | EC50 (DENV2 [4]): 4300 ± 560 nM |
| O=c1cc(-c2ccccc2)oc2c(O)c(O)ccc12 [3a, 7,8-dihydroxyflavone] |  |  | inhibition at 10 µM (DENV2 NGC; [7]): 58.3%; viability at 2 days, 10 µM [1, 8]: 79.4 ± 3.2% |
| COc1cc2oc(-c3ccc([N+](=O)[O-])cc3)cc(=O)c2c(O)c1OC [5q, 5-Hydroxy-6,7-dimethoxy-4′-nitroflavone] | 98.2% | 84.7 ± 5.07% | EC50 (DENV2 [4]): 4520 ± 760 nM; melting point: 145 to 150 °C |
| CC(=O)Oc1cc2oc(-c3ccccc3)cc(=O)c2c(OC(C)=O)c1OC(C)=O [5c, 5,6,7-Triacetoxyflavone] |  |  | inhibition at 10 µM (DENV2 NGC; [7]): 100%; EC50 (DENV2 [4]): 410 ± 560 nM; viability at 2 days, 10 µM [1, 8]: 107 ± 7.34% |
| Nc1ccc(-c2cc(=O)c3c(O)c(O)c(O)cc3o2)cc1 [5o, 4′-Amino-5,6,7-trihydroxyflavone] |  | 109 ± 2.53% |  |
| COc1ccc2oc(-c3ccccc3)cc(=O)c2c1 [1b, 6-Methoxyflavone] |  | 95.2 ± 8.12% | inhibition at 10 µM (DENV2 NGC; [7]): 77% |
| COc1ccc2c(=O)cc(-c3ccccc3)oc2c1 [2b, 7-Methoxyflavone] |  | 84.5 ± 3.34% | inhibition at 10 µM (DENV2 NGC; [7]): 37.5% |
| CCC(=O)Oc1c(OC(=O)CC)c(OC(=O)CC)c2c(=O)cc(-c3ccccc3)oc2c1Br [5h, 8-Bromo-5,6,7-tripropionoxyflavone] |  | 84.5 ± 6.56% | %Inhibition (%viral inhibition against DENV2) (DENV2 NGC; 10 μM, DENV2 NGC-infected LLC/MK2 cells, NA = not active): inactive; melting point: 113 to 115 °C |
| CCC(=O)Oc1cc2oc(-c3ccccc3)cc(=O)c2c(OC(=O)CC)c1OC(=O)CC [5d, 5,6,7-Tripropionoxyflavone] |  |  | inhibition at 10 µM (DENV2 NGC; [7]): 90%; EC50 (DENV2 [4]): 70 ± 15 nM; fold increase in activity compared with 8-bromobaicalein 5f (DENV2 [4]): over tenfold; also recorded: more than tenfold; fold more active than the original baicalein 5a (DENV2 [4]): over 300 fold; viability at 2 days, 10 µM [1, 8]: 83.8 ± 2.61%; CC50 at 2 days ([5]; LLC/MK2 cells, read-out: CC50): > 100000 nM |
| COc1cc2oc(-c3ccc([N+](=O)[O-])cc3)cc(=O)c2c(O)c1O [5r, 5,6-Dihydroxy-7-methoxy-4′-nitroflavone] | 22.2% | 91.6 ± 0.89% | melting point: 174 to 178 °C |
| COc1cc2oc(-c3ccc([N+](=O)[O-])cc3)cc(=O)c2c(OC)c1OC [5k, 5,6,7-Trimethoxy-4′-nitroflavone] | 70% | 101 ± 1.97% |  |
| O=c1cc(-c2ccccc2)oc2c(Br)c(O)c(Br)c(O)c12 [4d, 6,8-Dibromo-5,7-dihydroxyflavone] |  | 101.1 ± 0.44% | inhibition at 10 µM (DENV2 NGC; [7]): 83%; EC50 (DENV2 [2]): 1470 ± 860 nM |
| COc1cc2oc(-c3ccc(Br)cc3)cc(=O)c2c(OC)c1OC [5j, 4′-Bromo-5,6,7-trimethoxylflavone] | 70.4% | 101 ± 11.1% |  |

| SMILES | inhibition at 10 µM (DENV2 NGC; [6]) | viability at 2 days, 10 µM [1] | other results |
| --- | --- | --- | --- |
| Nc1c(O)cc(O)c2c(=O)cc(-c3ccccc3)oc12 [4f, 8-Amino-5,7-dihydroxyflavone] |  | 93.4 ± 3.29% |  |
| COc1cc2oc(-c3ccccc3)cc(=O)c2c(OC)c1OC [5i, 5,6,7-Trimethoxyflavone] | 44.4% | 96.8 ± 11.9% |  |
| COc1cc2oc(-c3ccccc3)cc(=O)c2c(O)c1OC [5b, 5-Hydroxy-6,7-dimethoxyflavone] | 80% | 97.5 ± 2.47% |  |
| O=c1cc(-c2ccccc2)oc2c3c(ccc12)OCO3 [3b, 7,8-Dioxoloflavone] |  | 96.6 ± 1.01% |  |
| CCC(=O)Oc1cc2oc(-c3ccccc3)cc(=O)c2c(O)c1OC(=O)CC [5e, 5-Hydroxy-6,7-dipropionoxyflavone] | 91.7% | 89.6 ± 5.95% | EC50 (DENV2 [4]): 68 ± 40 nM; fold increase in activity compared with 8-bromobaicalein 5f (DENV2 [4]): over tenfold; also recorded: more than tenfold; fold more active than the original baicalein 5a (DENV2 [4]): over 300 fold; melting point: 132 to 134 °C; CC50 at 2 days [5]: > 100000 nM |
| O=c1cc(-c2ccccc2)oc2cc(O)ccc12 [2a, 7-hydroxyflavone] | 37.5% |  | viability at 2 days, 10 µM [1, 8]: 122 ± 7.21% |
| O=c1cc(-c2ccccc2)oc2cc(OCc3ccccc3)cc(O)c12 [4c, 7-Benzyloxy-5-hydroxyflavone] |  | 86.1 ± 3.05% |  |
| O=c1cc(-c2ccccc2)oc2cc(O)cc(O)c12 [4a, chrysin] | 16.7% | 84.8 ± 2.03% |  |
| CCCCCCCCCCCCOc1c(Br)c(O)c2c(=O)cc(-c3ccccc3)oc2c1Br [IV] |  |  | EC50 (dengue and Zika virus): 4170 nM |
| O=c1cc(-c2ccccc2)oc2c([N+](=O)[O-])c(O)cc(O)c12 [4e, 5,7-Dihydroxy-8-nitroflavone] |  |  | inhibition at 10 µM (DENV2 NGC; [7]): 33.3%; viability at 2 days, 10 µM [1, 8]: 52.5 ± 2.59% |
| O=c1cc(-c2ccc(Br)cc2)oc2cc(O)c(O)c(O)c12 [5m, 4′-Bromo-5,6,7-trihydroxyflavone] | 100% | 90 ± 6.61% | EC50 (DENV2 [4]): 520 ± 120 nM |
| CCC(=O)Oc1ccc2c(=O)cc(-c3ccccc3)oc2c1 [2c, 7-Propionoxyflavone] | 37.5% | 115 ± 1.55% |  |
| COc1cc(O)c2c(=O)cc(-c3ccccc3)oc2c1 [4b, 5-Hydroxy-7-methoxyflavone] | 16.7% | 97.5 ± 1% |  |
| CC(=O)Oc1c(OC(C)=O)c(OC(C)=O)c2c(=O)cc(-c3ccccc3)oc2c1Br [5g, 5,6,7-Triacetoxy-8-bromoflavone] | 100% | 50.9 ± 3.22% | EC50 (DENV2 [4]): 260 ± 140 nM |
| O=c1cc(-c2ccccc2)oc2c(Br)c(O)c(O)c(O)c12 [5f, 8-Bromo-5,6,7-trihydroxyflavone] |  | 73.4 ± 14.8% | inhibition at 10 µM (DENV2 NGC; [7]): 100%; EC50 (DENV2 [2]): 880 ± 140 nM |
| O=c1cc(-c2ccccc2)oc2ccc(O)cc12 [1a, 6-hydroxyflavone] | 90% | 69.5 ± 14.3% |  |
| O=c1cc(-c2ccc(O)c(O)c2)oc2cc(O)cc(O)c12 [luteolin] |  |  | reduction of the virus load (dengue virus): tenfold reduction |
